Two molecules from BindingDB's records for doi:10.1021/jm010841w (University of Bristol, 2002) can be followed below.

The term EC50 denotes the concentration giving half of the maximal effect.

The nature of test [1]: Maximum % effect of standard (DAMGO) was reported against Opioid receptor mu 1.
A short description of test [2]: Maximum percentage effect of standard Opioid receptor delta 1 (Cl-DPDPE).

Consider `Cc1ccc(-c2cn(Cc3ccccc3)c3c2C[C@@]2(O)C4Cc5ccc(O)c6c5[C@@]2(CCN4CC2CC2)[C@H]3O6)cc1` [7-benzyl-18-cyclopropylmethyl-5-(4-methylphenyl)-10-oxa-7,18-diazahexacyclo[9.9.1.01,9.02,17.04,8.015,21]henicosa-4(8),5,11,13,15(21)-pentaene-2,12-diol], for which the 50% effective concentration (EC50) in test [1] came to 34 nM. On to `CN1CC[C@]23c4c5ccc(O)c4O[C@H]2c2c(c(-c4ccccc4)cn2Cc2ccccc2)C[C@@]3(O)C1C5` [7-benzyl-18-methyl-5-phenyl-10-oxa-7,18-diazahexacyclo[9.9.1.01,9.02,17.04,8.015,21]henicosa-4(8),5,11,13,15(21)-pentaene-2,12-diol], for which the 50% effective concentration (EC50) in test [2] amounted to 41 nM.
